Measurements: patent publication US10912815B2, “Inhibitors of mitochondrial fission and methods of use thereof” (The Board of Trustees of the Leland Stanford Junior …, priority 2011, dated 2021)
No end group written: not given here.

Columns and labels:
Drp1 = Drp1 translocation to mitochondria in SH-SY5Y cells (western blot of mitochondrial fractions); format: cell-based, human
Description: (§1) Cultured human SH-SY5Y neuronal cells were treated with peptide P110 (1 μM) for 30 min prior to 1 hr incubation in the absence or presence of MPP+(1-methyl-4-phenylpyridinium, a specific mitochondrial complex I inhibitor) (2 mM) or CCCP (carbonyl cyanide m-chloro phenyl hydrazone) (10 μM). Western blot analysis of mitochondrial fractions was determined by the indicated antibodies. VDAC was used as a loading control.
In another experiment, mitochondria were isolated from SH-SY5Y neuronal cells exposed to MPP+ in the absence or presence of P110. Mitochondrial fractions were subjected to Western blot analysis. The levels of Drp1, Fis1, Mff, Mfn1 (mitofisinl) and OPA1 in the mitochondrial fractions were determined. Voltage-dependent […] (VDAC), a marker of mitochondria, was used as internal loading controls. Quantitative data from three independent experiments are provided a the histogram, with data shown as mean±S.E (FIG. 3D).

Drp1 Ser616 = Drp1 Ser616 phosphorylation in SH-SY5Y cells; format: cell-based, human
Description: as §1
The function of Drp1 is regulated at least in part by phosphorylation events.

SH-SY5Y cells [1] = system: SH-SY5Y cells
Description: Cell viability of stressed SH-SY5Y cells was measured by MTT assay.
In another experiment, Human SH-SY5Y cells were treated with Drp1 P108, P109 or P110 or Fis1 P111, P112 or P113 (0.5 μM) for 15 min followed by treatment with MPP+(1 mM for 24 hrs). The cell viability was then determined by MTT test.

[2] = system: Primary rat dopaminergic neurons; assay: Neurite loss of primary dopaminergic neurons exposed to MPP+ (TH staining); format: cell-based; settings: P110 1 μM, MPP+ 1 μM, FIG. 10C
Description: (§2) Primary rat dopaminergic neurons (cultured for 6 days) were treated without or with P110 (1 μM) followed by treatment with or without MPP+(1 μM). Two hrs following MPP+ treatment, the cells were stained with MITOSOX™ red (to measure mitochondrial superoxide production) and anti-TH antibody (a marker of dopaminergic neurons). Fifteen hrs after MPP+ treatment, cells were stained with anti-TH antibody and anti-Tom20 antibody (a marker of mitochondria).

[3] = system: Primary rat dopaminergic neurons; assay: Mitochondrial fragmentation in primary dopaminergic neurons exposed to MPP+; format: cell-based; settings: P110 1 μM, MPP+ 1 μM, 15 hrs, FIG. 10B
Description: as §2

[4] = system: Primary rat dopaminergic neurons; assay: Mitochondrial superoxide production in primary dopaminergic neurons exposed to MPP+; format: cell-based; settings: P110 1 μM, MPP+ 1 μM, 2 hrs, FIG. 10A
Description: as §2

OPA1 = target: T1, OPA1 (Homo sapiens, UniProt O60313); assay: In vitro GTPase assay, recombinant OPA1; format: biochemical; settings: recombinant OPA1 25 ng, FIG. 2B
T1 sequence (O60313 88-960): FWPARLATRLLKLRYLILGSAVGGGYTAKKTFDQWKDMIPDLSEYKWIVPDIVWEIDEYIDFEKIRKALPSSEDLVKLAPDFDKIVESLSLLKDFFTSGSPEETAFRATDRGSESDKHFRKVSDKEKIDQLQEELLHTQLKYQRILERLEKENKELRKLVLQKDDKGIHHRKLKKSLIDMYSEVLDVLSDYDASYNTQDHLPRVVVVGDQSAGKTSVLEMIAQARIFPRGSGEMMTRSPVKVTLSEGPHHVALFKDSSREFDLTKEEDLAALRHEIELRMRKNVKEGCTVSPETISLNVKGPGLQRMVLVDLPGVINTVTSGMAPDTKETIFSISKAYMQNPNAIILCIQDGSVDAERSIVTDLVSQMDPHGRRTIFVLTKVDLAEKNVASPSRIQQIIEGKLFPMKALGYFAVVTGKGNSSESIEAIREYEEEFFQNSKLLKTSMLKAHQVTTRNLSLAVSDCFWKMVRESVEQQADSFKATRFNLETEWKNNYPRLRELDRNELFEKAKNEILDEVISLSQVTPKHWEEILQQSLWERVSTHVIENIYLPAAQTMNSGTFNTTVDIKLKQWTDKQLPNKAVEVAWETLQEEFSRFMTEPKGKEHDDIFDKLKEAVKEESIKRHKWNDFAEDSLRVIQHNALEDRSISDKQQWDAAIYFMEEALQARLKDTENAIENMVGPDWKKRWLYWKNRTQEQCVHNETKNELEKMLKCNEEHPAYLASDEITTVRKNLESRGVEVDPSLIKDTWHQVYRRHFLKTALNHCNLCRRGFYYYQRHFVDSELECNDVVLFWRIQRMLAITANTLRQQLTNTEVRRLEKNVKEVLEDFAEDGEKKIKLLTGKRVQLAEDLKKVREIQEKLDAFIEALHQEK
Description: First, mitochondrial fission inhibitor constructs were tested to determine what, if any, effects each peptide had on enzyme (GTPase) activity. Recombinant protein Drp1, Mfn1, OPA1 or dynamin-1 (25 ng) was incubated with the indicated modulator peptides for 30 min. GTPase activity was assayed in vitro using a GTPase assay kit (Innova Biosciences, Littleton, USA, or Novus Biologicals, Littleton, Colo.) according to manufacturer's instructions.

SH-SY5Y cells [5] = assay: Mitochondrial superoxide production in SH-SY5Y cells (MITOSOX red); format: cell-based, human; settings: peptide 1 μM, MPP+ 2 mM 2 hrs, FIG. 6A, FIG. 7
Description: The effects of MPP+ or CCCP on translocation of Drp1 in the absence and presence of P110 was measured using confocal microscopy. Cultured SH-SY5Y cells in black 96-well plate were treated with Drp1 peptide inhibitor P110 (1 μM) 30 min prior to treatment of MPP+ (2 mM) or CCCP (5 uM). After 2 hrs of treatment, cells were stained with MITOSOX™ (red mitochondrial superoxide indicator) (5 uM, for 10 min, mitochondrial ROS) or TMRM (0.5 uM, for 20 min, MMP) at 37° C. For total ROS detection, cells were treated with MPP+ or CCCP for 24 hrs. ROS level was measured by CM-H2DCFDA (1 μM for 30 min, Invitrogen). Cells were washed with PBS for three times. The detection was performed in a fluorescence microplate reader (Tecan, Infinite M1000) according to manufacturer's instructions. Measurements were normalized to the cell number counted using Hoechst staining.
SH-SY5Y cells were treated with P110 (1 μM) followed by incubation of MPP+ (2 mM) for 2 hrs. Mitochondrial superoxide production was determined using the mitochondrial superoxide indicator, MITOSOX™ red (red mitochondrial superoxide indicator). Nuclei were stained with Hoechst (blue). This experiment included the analysis of P110 alanine-scan analogs, further determine the contribution of each of the amino acids of the P110 fission inhibitor peptide sequence on the bioactivity of the peptide.

RRRQRRKKRGYGGDLLPRGS (RRRQRRKKRGYGGDLLPRGS-NH2) [P110, TAT47-57 carrier, GG linker, Drp1 region 110 (GTPase domain) peptide DLLPRGS; C-terminus C(O)-NH2]
levels of Drp1 associated with the mitochondrial fractions under stress (Drp1; P110 1 μM 30 min before MPP+, CCCP, H2O2 or rotenone, FIG. 3A, 3B): abolished the increased levels of Drp1 | cellular level and distribution of other mitochondrial dynamics-related proteins (MFN-1/2, OPA1, Fis1) (Drp1; SH-SY5Y, MPP+, FIG. 3C, 3D): did not affect | reduction of MPP+-induced translocation of Drp1 from cytosol to the mitochondria (Drp1; SH-SY5Y, MPP+, p<0.01, n=3, FIG. 3C, 3D): more than 60% | Drp1 Ser616 phosphorylation (Drp1 Ser616; SH-SY5Y exposed to MPP+ or CCCP, FIG. 3F): abolished Ser616 phosphorylation | Drp1 levels and phosphorylation under normal conditions (Drp1 Ser616; SH-SY5Y, no stressor): did not affect | mitochondrial damage and neuronal cell death (MTT) (SH-SY5Y cells [1]; peptides 0.5 μM 15 min, MPP+ 1 mM for 24 hrs, n=7-8, FIG. 9F): reduced mitochondrial damage and neuronal cell death | cell viability (MTT) (SH-SY5Y cells [1]; peptides 1 μM each, MPP+ 2 mM for 24 hours, FIG. 9E): improved cell viability | neurite loss of dopaminergic neurons (TH) [2]: reduced neurite loss | mitochondrial fragmentation [3]: reduced mitochondrial fragmentation | mitochondrial ROS (superoxide) production [4]: reduced | effect on GTPase activity of OPA1 (OPA1): no effects | MPP+-induced production of mitochondrial superoxide (SH-SY5Y cells [5]): abolished
